ChEMBL document CHEMBL1126970, “Development of 1,4-benzodiazepine cholecystokinin type B antagonists” (J Med Chem, 1993)

Tests used:
Cavia porcellus = organism: Cavia porcellus; experiment: Selectivity ratio between CCK-B and CCK-A receptor; design: reference not given here
[1] = molecular target: T1, Cholecystokinin receptor type A (Rattus norvegicus, UniProt P30551); experiment: Inhibition of binding of [125I]CCK-8 to cholecystokinin type A receptor in rat pancreatic tissue
T1 sequence (P30551 whole entry): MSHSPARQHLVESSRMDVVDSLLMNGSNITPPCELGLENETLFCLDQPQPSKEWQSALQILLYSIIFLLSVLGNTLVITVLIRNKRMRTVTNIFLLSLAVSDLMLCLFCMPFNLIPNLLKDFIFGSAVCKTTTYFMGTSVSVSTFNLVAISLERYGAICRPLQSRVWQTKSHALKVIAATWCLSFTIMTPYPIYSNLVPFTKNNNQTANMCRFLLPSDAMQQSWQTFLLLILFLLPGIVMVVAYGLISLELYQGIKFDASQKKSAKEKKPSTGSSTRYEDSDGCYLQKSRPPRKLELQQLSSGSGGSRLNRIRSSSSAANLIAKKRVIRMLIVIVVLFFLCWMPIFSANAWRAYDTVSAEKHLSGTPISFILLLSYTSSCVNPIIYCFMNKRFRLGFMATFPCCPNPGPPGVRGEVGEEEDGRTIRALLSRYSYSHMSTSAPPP

| SMILES | Selectivity ratio (Cavia porcellus) | IC50 [1] [nM] |
| --- | --- | --- |
| Cc1cc(C)cc(NC(=O)NC2N=C(c3ccccc3)c3ccccc3N(C)C2=O)c1 (stereo not given) | 2.7 | 720 |
| COC(=O)Cc1cccc(NC(=O)NC2N=C(c3ccccc3)c3ccccc3N(C)C2=O)c1 (stereo not given) | 64 | 2100 |
| CN1C(=O)C(NC(=O)Nc2ccc3ccccc3n2)N=C(c2ccccc2)c2ccccc21 (stereo not given) | 7 | 180 |
| Cc1ccc(NC(=O)NC2N=C(c3ccccc3)c3ccccc3N(C)C2=O)cc1C (stereo not given) | 14 | 310 |
| CN1C(=O)C(NC(=O)Nc2ccc(C(F)(F)F)cc2)N=C(c2ccccc2)c2ccccc21 (stereo not given) | 228 | 1300 |
| CN1C(=O)C(NC(=O)Nc2ccc3c(c2)CCC3)N=C(c2ccccc2)c2ccccc21 (stereo not given) | 333 | 900 |
| CN1C(=O)C(NC(=O)Nc2cccc(C#N)c2)N=C(c2ccccc2)c2ccccc21 (stereo not given) | 115 | 3100 |
| CN1C(=O)C(NC(=O)Nc2cccc(CC(=O)O)c2)N=C(c2ccccc2)c2ccccc21 (stereo not given) | 12 | 61 |
| CN1C(=O)C(NC(=O)Nc2ccc(N)nc2)N=C(c2ccccc2)c2ccccc21 (stereo not given) | 6 | 3000 |
| CN1C(=O)[C@H](NC(=O)Nc2ccc(Cl)cc2)N=C(c2ccccc2)c2ccccc21 | 112 | 2200 |
| O=C(Nc1ccc(Cl)cc1)N[C@H]1N=C(c2ccccc2)c2ccccc2N(CC(=O)N2CCCC2)C1=O | 192 | 2500 |
| CN1C(=O)[C@@H](NC(=O)c2ccc(C(F)(F)F)cc2)N=C(c2ccccc2)c2ccccc21 | 0.3 | 1300 |
| O=C(Nc1ccc(Cl)cc1)N[C@@H]1N=C(c2ccccc2)c2ccccc2N(CC(=O)N2CCCC2)C1=O | 643 | 900 |
| CN1C(=O)[C@@H](NC(=O)Nc2ccccc2Cl)N=C(c2ccccc2)c2ccccc21 | < 0.01 | 0.26 |
| Cc1cccc(NC(=O)N[C@@H]2N=C(c3ccccc3)c3ccccc3NC2=O)c1 | 95 | 3800 |
| CN1C(=O)[C@H](NC(=O)Nc2ccccc2Cl)N=C(c2ccccc2)c2ccccc21 | 6.7 | 410 |
| CN1C(=O)[C@H](NC(=O)Nc2cccc(N)c2)N=C(c2ccccc2)c2ccccc21 | 131 | 4330 |
| CC(=O)Oc1cccc(NC(=O)N[C@@H]2N=C(c3ccccc3)c3ccccc3N(C)C2=O)c1 | 13 | 6600 |
| CN1C(=O)[C@H](NC(=O)NCc2cccc(O)c2)N=C(c2ccccc2)c2ccccc21 | 1 | 21 |
| C=Cc1cccc(NC(=O)N[C@@H]2N=C(c3ccccc3)c3ccccc3N(C)C2=O)c1 | 48 | 1670 |
| CN1C(=O)[C@H](NC(=O)Nc2cccc(O)c2)N=C(c2ccccc2)c2ccccc21 | 1 | 60 |
| CN1C(=O)[C@H](NC(=O)Nc2cccc(CN)c2)N=C(c2ccccc2)c2ccccc21 | 0.22 | 160 |
| CC(=O)c1cccc(NC(=O)NC2N=C(c3ccccc3)c3ccccc3N(C)C2=O)c1 (stereo not given) | 361 | 1300 |
| CN1C(=O)C(NC(=O)Nc2cccc(CNC(=O)OC(C)(C)C)c2)N=C(c2ccccc2)c2ccccc21 (stereo not given) | 1 | 200 |

| SMILES | Selectivity ratio (Cavia porcellus) | IC50 [1] [nM] |
| --- | --- | --- |
| COc1ccc(NC(=O)NC2N=C(c3ccccc3)c3ccccc3N(C)C2=O)cn1 (stereo not given) | 6.3 | 2900 |
| CN1C(=O)[C@@H](NC(=O)Nc2ccc(Cl)cc2)N=C(c2ccccc2)c2ccccc21 | 0.1 | 110 |
| CN1C(=O)C(NC(=O)NCc2cccc(C(C)(C)O)c2)N=C(c2ccccc2)c2ccccc21 (stereo not given) | 69 | 406 |
| C#Cc1cccc(NC(=O)NC2N=C(c3ccccc3)c3ccccc3N(C)C2=O)c1 (stereo not given) | 18 | 402 |
| CN1C(=O)[C@H](NC(=O)Nc2cccc(I)c2)N=C(c2ccccc2)c2ccccc21 | 116 | 800 |
| Cc1cccc(NC(=O)N[C@H]2N=C(c3ccccc3)c3ccccc3N(C)C2=O)c1 |  | 4.7 |
| Cc1cccc(NC(=O)NC2N=C(c3ccccn3)c3ccccc3N(C)C2=O)c1 (stereo not given) | 1 | 65 |
| COC(=O)c1cccc(NC(=O)N[C@@H]2N=C(c3ccccc3)c3ccccc3N(C)C2=O)c1 | 150 | 1200 |
| CN1C(=O)C(NC(=O)Nc2ccc(F)cc2)N=C(c2ccccc2)c2ccccc21 (stereo not given) | 0.7 |  |
| CN1C(=O)[C@H](NC(=O)Nc2cccc(Br)c2)N=C(c2ccccc2)c2ccccc21 | 221 |  |
| CN1C(=O)[C@H](NC(=O)Nc2cccc(Cl)c2)N=C(c2ccccc2)c2ccccc21 | 39 |  |
| CN1C(=O)[C@H](NC(=O)c2ccc(C(F)(F)F)cc2)N=C(c2ccccc2)c2ccccc21 | 35 |  |
| COc1cccc(NC(=O)N[C@@H]2N=C(c3ccccc3)c3ccccc3N(C)C2=O)c1 | 272 |  |
| COc1cccc(NC(=O)N[C@H]2N=C(c3ccccc3)c3ccccc3N(C)C2=O)c1 | < 0.01 |  |
| CCOC(=O)CN1C(=O)C(NC(=O)N[C@@H](C)c2ccccc2)N=C(c2ccccc2)c2ccccc21 (mixture of isomers) | < 48 | 4800 |
| C[C@H](NC(=O)NC1N=C(c2ccccc2)c2ccccc2N(C)C1=O)c1ccccc1 (mixture of isomers) | 0.04 | 430 |
| COC(=O)[C@H]1CCCN1OC(=O)CN1C(=O)C(NC(=O)Nc2cccc(OC)c2)N=C(c2ccccc2)c2ccccc21 (mixture of isomers) | 144 | 1400 |
| O=C(Nc1ccc(Cl)cc1)NC1N=C(c2ccccc2)c2ccccc2N(Cc2nnn[nH]2)C1=O (racemic) |  | 2100 |
| CN1C(=O)C(NC(=O)Nc2ccc(C(=O)O)cc2)N=C(c2ccccc2)c2ccccc21 (racemic) |  | > 10000 |
| CCN(CC)C(=O)CN1C(=O)C(NC(=O)Nc2ccc(Cl)cc2)N=C(c2ccccc2)c2ccccc21 (racemic) | 667 |  |
| CCNC(=O)CN1C(=O)C(NC(=O)Nc2ccc(Cl)cc2)N=C(c2ccccc2)c2ccccc21 (racemic) | 191 |  |
| CCOC(=O)CCN1C(=O)C(NC(=O)Nc2ccc(Cl)cc2)N=C(c2ccccc2)c2ccccc21 (racemic) | 204 |  |
| CCOC(=O)CN1C(=O)C(NC(=O)Nc2ccc(Cl)cc2)N=C(c2ccccc2)c2ccccc21 (racemic) | 370 |  |
| CCOC(=O)CN1C(=O)C(NC(=O)c2ccccc2Cl)N=C(c2ccccc2F)c2ccccc21 (racemic) | > 9 |  |

| SMILES | Selectivity ratio (Cavia porcellus) | IC50 [1] [nM] |
| --- | --- | --- |
| CN1C(=O)C(NC(=O)NC(C)(C)C)N=C(c2ccccc2)c2ccccc21 (racemic) | 0.2 |  |
| CN1C(=O)C(NC(=O)NC2CCCCC2)N=C(c2ccccc2)c2ccccc21 (racemic) | 0.8 |  |
| CN1C(=O)C(NC(=O)NCc2ccccc2)N=C(c2ccccc2)c2ccccc21 (racemic) | 0.6 |  |
| CN1C(=O)C(NC(=O)Nc2ccc(Br)cc2)N=C(c2ccccc2)c2ccccc21 (racemic) | 2.7 |  |
| CN1C(=O)C(NC(=O)Nc2ccc(Cl)c(Cl)c2)N=C(c2ccccc2)c2ccccc21 (racemic) | 0.4 |  |
| CN1C(=O)C(NC(=O)Nc2ccc(Cl)cc2Cl)N=C(c2ccccc2)c2ccccc21 (racemic) | 0.01 |  |
| CN1C(=O)C(NC(=O)Nc2ccc([N+](=O)[O-])cc2)N=C(c2ccccc2)c2ccccc21 (racemic) | 4.5 |  |
| CN1C(=O)C(NC(=O)Nc2cccc(Br)c2)N=C(c2ccccc2)c2ccccc21 (racemic) | 1 |  |
| CN1C(=O)C(NC(=O)Nc2cccc(Cl)c2)N=C(c2ccccc2)c2ccccc21 (racemic) | 1 |  |
| CN1C(=O)C(NC(=O)Nc2cccc(F)c2)N=C(c2ccccc2)c2ccccc21 (racemic) | 0.2 |  |
| CN1C(=O)C(NC(=O)Nc2cccc([N+](=O)[O-])c2)N=C(c2ccccc2)c2ccccc21 (racemic) | 3 |  |
| CN1C(=O)C(NC(=O)Nc2ccccc2)N=C(c2ccccc2)c2ccccc21 (racemic) | 0.26 |  |
| CN1C(=O)C(NC(=O)Nc2ccccc2[N+](=O)[O-])N=C(c2ccccc2)c2ccccc21 (racemic) | < 0.01 |  |
| CN1CCN(C(=O)CN2C(=O)C(NC(=O)Nc3ccc(Cl)cc3)N=C(c3ccccc3)c3ccccc32)CC1 (racemic) | 1500 |  |
| COc1cc(NC(=O)NC2N=C(c3ccccc3)c3ccccc3N(C)C2=O)cc(OC)c1 (racemic) | 0.1 |  |
| COc1cccc(NC(=O)NC2N=C(c3ccccc3)c3ccccc3N(C)C2=O)c1 (racemic) | 2 |  |
| COc1ccccc1NC(=O)NC1N=C(c2ccccc2)c2ccccc2N(C)C1=O (racemic) | 0.5 |  |
| Cc1cccc(NC(=O)NC2N=C(c3ccccc3)c3ccccc3N(Cc3c[nH]cn3)C2=O)c1 (racemic) | 1 |  |
| Cc1cccc(NC(=O)NC2N=C(c3ccccc3)c3ccccc3N(Cc3ncc[nH]3)C2=O)c1 (racemic) | 4 |  |
| O=C(CN1C(=O)C(NC(=O)Nc2ccc(Cl)cc2)N=C(c2ccccc2)c2ccccc21)NCc1ccccc1 (racemic) | 24 |  |
| O=C(Nc1ccc(Cl)cc1)NC1N=C(c2ccccc2)c2ccccc2N(CC(=O)OCc2ccccc2)C1=O (racemic) | 30 |  |
| O=C(Nc1ccc(Cl)cc1)NC1N=C(c2ccccc2)c2ccccc2N(Cc2nn[nH]n2)C1=O (racemic) | 4 |  |
| O=C(O)CN1C(=O)C(NC(=O)Nc2ccc(Cl)cc2)N=C(c2ccccc2)c2ccccc21 (racemic) | 0.77 |  |
